From PMC10892120, “Design, Synthesis and Biological Assessment of N′-(2-Oxoindolin-3-ylidene)-6-methylimidazo[2,1-b]thiazole-5-carbohydrazides as Potential Anti-Proliferative Agents toward MCF-7 Breast Cancer” (Pharmaceuticals, 2024)

What was measured:
Assay type in all cases: cell-based
MCF-10A = assay: MTT assay, cytotoxicity toward MCF-10A; conditions: Homo sapiens
Procedure: The developed compounds were evaluated in vitro using the MTT cell viability assay following the published techniques (Supplementary Data, page 42). […]
The 96 well tissue culture plate was seeded with 1 X 10^5 cells / ml (100 ul / well) and cultured at 37 degrees Celsius for 24 hours to form a full monolayer sheet. After forming a confluent sheet of cells, growth medium was decanted from 96 well micro titer plates, the cell monolayer was washed twice with wash media, and two-fold dilutions of the tested sample were prepared in RPMI medium with 2% serum (maintenance medium). In each well, 0.1 ml of each dilution was examined, with three wells serving as controls and receiving only maintenance media.
The plate was incubated at 37 degrees Celsius and then analyzed. Cells were examined for any physical evidence of toxicity, such as partial or total monolayer loss, rounding, shrinkage, or cell granulation. MTT solution (5mg/ml in PBS) was prepared (BIO BASIC CANADA INC), and 20ul MTT solution was added to each well. Shake the MTT into the medium for 5 minutes at 150rpm on a shaking table. Incubate for 4 hours (37°C, 5% CO2) to allow the MTT to be digested. Remove the media. (If required, dry plate on paper towels to remove residue. In 200ul DMSO, resuspend formazan (MTT metabolic product). Shake at 150rpm for 5 minutes to properly mix the formazan into the solvent. At 560nm, measure optical density and subtract background at 620nm. The optical density should be proportional to the number of cells. MCF-7 and MCF-10A cell lines were provided with 10% fetal bovine serum (FBS, Sigma-Aldrich, MO, USA). Data are presented as the mean of the IC50 values ± SD from three different experiments. […]

Bax = assay: RT-PCR gene expression in treated MCF-7 cells: Bax; conditions: treated MCF-7 cells vs untreated control MCF-7 (=1)
Procedure: (§1) The gene expression levels of apoptosis genes in MCF-7 cells were measured using RT-PCR to validate the apoptosis-inducing behaviors of the potent lead compound 6i in MCF-7 cells.
(§2) The gene expression levels of apoptosis genes were evaluated in MCF-7 cells using the following approaches in the Supplementary Data, page 43.
(§3) Inhibitor solution of each well labeled as “Test Inhibitor”. For the “Positive Control" and “Blank”, add 5 μl of the same solution without inhibitor (Inhibitor buffer). Prepare 3 ml of 1x Kinase Buffer 1 by mixing 600 μl of 5x Kinase Buffer 1 with 2400 μl water. 3 ml of 1x Kinase Buffer 1 is sufficient for 100 reactions. To the wells designated as "Blank", add 20 μl of 1x Kinase Buffer 1.
(§4) Thaw VEGFR2 enzyme on ice. Upon first thaw, briefly spin tube containing enzyme to recover full content of the tube. Calculate the amount of VEGFR2 required for the assay and dilute enzyme to 1 ng/μl with 1x Kinase Buffer 1. Store remaining undiluted enzyme in aliquots at -80°C. Note:
(§5) VEGFR2 enzyme is sensitive to freeze/thaw cycles. Avoid multiple freeze/thaw cycles. […]
(§6) use thawed aliquots or diluted enzyme. […]
(§7) thoroughly, and then centrifuge at 4°C to collect contents to the bottom of the tube. […] Preparation of a reaction cocktail is crucial in quantitative PCR applications to reduce pipetting errors and maximize assay precision and accuracy. […]

Cytochrome C = assay: RT-PCR gene expression in treated MCF-7 cells: cytochrome C; conditions: treated MCF-7 cells vs untreated control MCF-7 (=1)
Procedure: as §1, §2, §3, §4, §5, §6, §7

CCCCN1C(=O)C(=NNC(=O)c2c(C)nc3sccn23)c2ccccc21 [Compound 6i, N′-(1-Butyl-2-oxoindolin-3-ylidene)-6-methylimidazo[2,1-b]thiazole-5-carbohydrazide]
IC50 (MCF-10A): 54.6 ± 1.29 µM
RT-PCR Fold Change Bax (Bax): 4.337 fold
RT-PCR Fold Change Cytochrome C (Cytochrome C): 2.420 fold
